Data on one compound can be found in BindingDB's records for doi:10.1021/acsmedchemlett.8b00406 (China Agricultural University, 2018).

This assay deals with beta-hexosaminidase HsHex (Homo sapiens). Kind of assay: Inhibition of human beta-N-acetylhexosaminidase using p-nitrophenyl glycoside as substrate by spectrometric method.

Turning to `O=C1c2cccc3cccc(c23)C(=O)N1CCNCCN1C(=O)c2cccc3cccc(c23)C1=O`, the Ki (commonly a measure of affinity in units of concentration, obtained from inhibition or displacement) was 3.2 µM. That is a single-digit micromolar value.
